What was measured:
interferon (α) = assay: Cytokine Induction in Human Cells: interferon; type: cell-based; details: human PBMC, 18 to 24 hours, tested 30-0.014 μM, interferon (α) by ELISA; read-out: Lowest Effective Concentration (μM) Interferon
Excerpt: (§1) An in vitro human blood cell system is used to assess cytokine induction. Activity is based on the measurement of interferon and tumor necrosis factor (α) (IFN and TNF, respectively) secreted into culture media as described by Testerman et. al. In “Cytokine Induction by the Immunomodulators Imiquimod and S-27609”, Journal of Leukocyte Biology, 58, 365-372 (September, 1995).
(§2) Whole blood from healthy human donors is collected by venipuncture into EDTA vacutainer tubes. Peripheral blood mononuclear cells (PBMC) are separated from whole blood by density gradient centrifugation using Histopaque®-1077. Blood is diluted 1:1 with Dulbecco's Phosphate Buffered Saline (DPBS) or Hank's Balanced Salts Solution (HBSS). The PBMC layer is collected and washed twice with DPBS or HBSS and resuspended at 4×10^6 cells/mL in RPMI complete. The PBMC suspension is added to 48 well flat bottom sterile tissue culture plates (Costar, Cambridge, Mass. or Becton Dickinson Labware, Lincoln Park, N.J.) containing an equal volume of RPMI complete media containing test compound.
(§3) The compounds are solubilized in dimethyl sulfoxide (DMSO). The DMSO concentration should not exceed a final concentration of 1% for addition to the culture wells. The compounds are generally tested at concentrations ranging from 30-0.014 μM.
(§4) The solution of test compound is added at 60 μM to the first well containing RPMI complete and serial 3 fold dilutions are made in the wells. The PBMC suspension is then added to the wells in an equal volume, bringing the test compound concentrations to the desired range (30-0.014 μM). The final concentration of PBMC suspension is 2×10^6 cells/mL. The plates are covered with sterile plastic lids, mixed gently and then incubated for 18 to 24 hours at 37° C. in a 5% carbon dioxide atmosphere.
(§5) Following incubation the plates are centrifuged for 10 minutes at 1000 rpm (˜200× g) at 4° C. The cell-free culture supernatant is removed with a sterile polypropylene pipet and transferred to sterile polypropylene tubes. Samples are maintained at −30 to −70° C. until analysis. The samples are analyzed for interferon (α) by ELISA and for tumor necrosis factor (α) by ELISA or IGEN Assay
Interferon (α) concentration is determined by ELISA using a Human Multi-Species kit from PBL Biomedical Laboratories, New Brunswick, N.J. Results are expressed in pg/mL.
(§6) The table below lists the lowest concentration found to induce interferon and the lowest concentration found to induce tumor necrosis factor for each compound.

[1] = system: tumor necrosis factor (α); assay: Cytokine Induction in Human Cells: tumor necrosis factor; type: cell-based; design: key to Lowest Effective Concentration (μM) Tumor Necrosis Factor: A “*” indicates that no induction was seen at any of the tested concentrations; details: human PBMC, 18 to 24 hours, tested 30-0.014 μM, TNF by ELISA or IGEN assay; for minimal effective concentration: read-out: Lowest Effective Concentration (μM) Tumor Necrosis Factor
Excerpt: as §1, §2, §3, §4, §5
Tumor necrosis factor (α) (TNF) concentration is determined using ELISA kits available from Biosource International, Camarillo, Calif. Alternately, the TNF concentration can be determined by Origen® M-Series Immunoassay and read on an IGEN M-8 analyzer from IGEN International, Gaithersburg, Md. The immunoassay uses a human TNF capture and detection antibody pair from Biosource International, Camarillo, Calif. Results are expressed in pg/mL.
as §6

SMILES	melting point	minimal effective concentration (interferon (α))	minimal effective concentration [1]	Lowest Effective Concentration (μM) Tumor Necrosis Factor [1]
CCCCc1nc2c(N)nc3ccccc3c2n1CCCCSc1ccccc1 [Example 1, 2-butyl-1-[4-(phenylthio)butyl]-1H-imidazo[4,5-c]quinolin-4-amine]	118 to 120 °C	0.12 µM	0.12 µM	–
COCCc1nc2c(N)nc3ccccc3c2n1CCCCCS(=O)(=O)c1ccccc1 [Example 70, 2-(2-methoxyethyl)-1-[5-(phenylsulfonyl)pentyl]-1H-imidazo[4,5-c]quinolin-4-amine]	172 to 175 °C	0.01 µM	0.01 µM	–
Nc1nc2ccccc2c2c1ncn2CCCCCS(=O)(=O)c1ccccc1 [Example 69, 1-[5-(phenylsulfonyl)pentyl]-1H-imidazo[4,5-c]quinolin-4-amine]	171 to 172 °C	1.11 µM	1.11 µM	–
CSCCn1c(C)nc2c(N)nc3ccccc3c21 [Example 32, 2-methyl-1-[2-(methylthio)ethyl]-1H-imidazo[4,5-c]quinolin-4-amine]	193 to 195 °C	0.12 µM	0.12 µM	–
Nc1nc2ccccc2c2c1ncn2CCCCS(=O)(=O)c1ccccc1 [Example 7, 1-[4-(phenylsulfonyl)butyl]-1H-imidazo[4,5-c]quinolin-4-amine]	175 to 177 °C	3.33 µM	10 µM	–
CCCCc1nc2c(N)nc3ccccc3c2n1CCCS(=O)(=O)c1ccccc1 [Example 20, 2-butyl-1-[3-(phenylsulfonyl)propyl]-1H-imidazo[4,5-c]quinolin-4-amine]	224 to 227 °C	0.04 µM	0.37 µM	–
CCCCc1nc2c(N)nc3ccccc3c2n1CCCCC[S+](C)[O-] (stereo not drawn) [Example 18, 2-butyl-1-[5-(methylsulfinyl)pentyl]-1H-imidazo[4,5-c]quinolin-4-amine]	119 to 121 °C	0.01 µM	0.12 µM	–
CS(=O)(=O)CCCCn1cnc2c(N)nc3ccccc3c21 [Example 8, 1-[4-(methylsulfonyl)butyl]-1H-imidazo[4,5-c]quinolin-4-amine]	203 to 204 °C	10 µM	–	*

More lines, main results first:

melting point	SMILES	minimal effective concentration (interferon (α))	minimal effective concentration [1]	Lowest Effective Concentration (μM) Tumor Necrosis Factor [1]
206 to 209 °C	Cc1nc2c(N)nc3ccccc3c2n1CCCCS(C)(=O)=O [Example 34, 2-methyl-1-[4-(methylsulfonyl)butyl]-1H-imidazo[4,5-c]quinolin-4-amine]	0.37 µM	3.33 µM	–
168 to 171 °C	CCCCCCc1nc2c(N)nc3ccccc3c2n1CCCCCS(C)(=O)=O [Example 15, 2-hexyl-1-[5-(methylsulfonyl)pentyl]-1H-imidazo[4,5-c]quinolin-4-amine]	0.04 µM	–	*
190 to 193 °C	CSCCCCn1c(C)nc2c(N)nc3ccccc3c21 [Example 26, 2-methyl-1-[4-(methylthio)butyl]-1H-imidazo[4,5-c]quinolin-4-amine]	0.04 µM	0.37 µM	–
212 to 214 °C	CCCc1nc2c(N)nc3ccccc3c2n1CCS(C)(=O)=O [Example 36, 1-[2-(methylsulfonyl)ethyl]-2-propyl-1H-imidazo[4,5-c]quinolin-4-amine]	1.11 µM	1.11 µM	–
202 to 206 °C	Cc1nc2c(N)nc3ccccc3c2n1CCCCCCS(C)(=O)=O [Example 68, 2-methyl-1-[6-(methylsulfonyl)hexyl]-1H-imidazo[4,5-c]quinolin-4-amine]	0.014 µM	0.12 µM	–
235 to 240 °C	Cc1nc2c(N)nc3ccccc3c2n1CCCCCS(C)(=O)=O [Example 12, 2-methyl-1-[5-(methylsulfonyl)pentyl]-1H-imidazo[4,5-c]quinolin-4-amine]	0.12 µM	10 µM	–
233 to 236 °C	CCCCc1nc2c(N)nc3ccccc3c2n1CCCS(C)(=O)=O [Example 19, 2-butyl-1-[3-(methylsulfonyl)propyl]-1H-imidazo[4,5-c]quinolin-4-amine]	0.04 µM	0.37 µM	–
242 to 245 °C	Cc1nc2c(N)nc3ccccc3c2n1CCS(C)(=O)=O [Example 33, 2-methyl-1-[2-(methylsulfonyl)ethyl]-1H-imidazo[4,5-c]quinolin-4-amine]	3.33 µM	10 µM	–

Reference: patent publication US6667312B2, “Thioether substituted imidazoquinolines” (3M Innovative Properties Company, priority 2000, dated 2003)
